# In the OPERA property sets (Mansouri et al. 2018):
# Where a SMILES comes first, the peptide text is derived from it.
row,logP,Compound
1,4.62,CCOc1cc2ncnc(Nc3cccc(I)c3)c2cc1OCC
2,2.39,CCCCCCNC(=O)N1C(=O)N(C)CC1O (stereo not drawn)
3,-0.9,CN(C)c1cc[n+]([O-])cc1
4,2.6,CCOc1ccc(CNc2[nH]cnc3ncnc2-3)cc1
5,6.69,Brc1ccc2ccc3c(Br)ccc4ccc1c2c43
6,2.51,CC(C)CCNc1ncnc2nc[nH]c12
7,3.61,CC(C(=O)O)c1ccc(OCc2ccccc2)c(F)c1 (stereo not drawn)
8,4.36,COc1c2ccccc2cc2ccccc12
9,3.25,CCCCC(Nc1ccc([N+](=O)[O-])cc1[N+](=O)[O-])C(=O)O (stereo not drawn)
10,1.34,COc1cccc(OCC2CN=C(N)O2)c1 (stereo not drawn)
11,1.14,OCCCCCCNc1ncnc2nc[nH]c12
12,2.76,CCC(C)SSc1ncc[nH]1 (stereo not drawn)
13,3.77,CCOc1cccc(NC(=O)OCCN2CCCCC2)c1
14,1.89,CCCNC(C)C(=O)Nc1c(C)csc1C(=O)OC (stereo not drawn)
15,2.25,Cc1cc(C)cc(OCC2CN=C(N)O2)c1 (stereo not drawn)
16,2.88,Cc1cc2ccc(=O)oc2c2c(C)coc12
17,4.2,Clc1cccc(N2CCN(CCCOn3nnc4ccccc43)CC2)c1
18,1.62,Nc1nnnn1-c1ccc(Cl)cc1Cl
19,5.81,Brc1ccc2ccc3cccc4ccc1c2c34
20,3.22,O=C(O)CCCCCON=C(c1cccc(C(F)(F)F)c1)c1cccnn1
21,2.15,CCCc1nc(NC)nc(N2CCOCC2)n1

# Further lines, the molecule ahead of its results:
row,Compound,logP
1,CC(C)NC(=NC#N)NS(=O)(=O)c1cnccc1NC1CC1,0.01
2,CCCN(CCC)C1CCc2c(O)cccc2C1 (stereo not drawn),3.58
3,Cc1cc(=O)oc2c1cc(C)c1occ(C)c12,3.23
4,Clc1ccccc1N1CCN(CCn2nnc3ccccc32)CC1,3.35
5,COc1ccc(C2Cc3cc(Cl)ccc3N(CCN(C)C)C(=O)C2OC(C)=O)cc1 (stereo not drawn),4.2
6,NC(Cc1c[nH]c2ccccc12)C(=O)N1CCCC1C(=O)O (stereo not drawn),-0.98
7,CCCOc1ccccc1CNc1[nH]cnc2ncnc1-2,3.27
8,O=C(NS(=O)(=O)c1cnccc1NC1CCCCCC1)N1CCCCC1,4.14
9,CC(=O)C(=Cc1cc(O)c(O)c([N+](=O)[O-])c1)C(C)=O,1.21
10,CCCCC(C)N=C=S (stereo not drawn),3.94
11,CCC(C)C(NC(=O)C(NC(=O)C(N)CC(C)C)C(C)CC)C(=O)O (stereo not drawn) (H-Leu-Ile-Ile-OH; configuration not given here),-1.11
12,CCCCC(O)C(CCCCOc1ccc(F)cc1)n1cncn1 (stereo not drawn),3.38
13,CC1(C)OC23CC1CCC2CCCC3(C)O (stereo not drawn),3.57
14,Cn1c2c(c3cc([N+](=O)[O-])ccc31)CCNC2,2.07
15,Nc1nc(N)nc(O)n1,-0.19
16,O=C(NC1CCCCCC1)NS(=O)(=O)c1cnccc1NC1CCCCCC1,4.96
17,CC(C)=CC1C(C(=O)OCc2cccc(C(=O)c3ccccc3)c2)C1(C)C (stereo not drawn),6.54
18,CCC(CC)C(=O)NS(=O)(=O)c1ccc(C(F)(F)F)cc1[N+](=O)[O-],3.57
19,COCC(O)Cn1c([N+](=O)[O-])nc(Br)c1Br (stereo not drawn),1.02
20,CC(C)OC(=O)CC(C(=O)OC(C)C)S(=O)(=O)c1ccc([N+](=O)[O-])cc1 (stereo not drawn),2.18
21,CC(C)CC(NC(=O)C(C)N)C(=O)NC(CC(C)C)C(=O)NCC(=O)NC(Cc1ccccc1)C(=O)O (stereo not drawn) (H-ALLGF-OH; configuration not given here),-0.63

row,Compound,logP
1,COc1ccc(C2Cc3cc(SC)ccc3N(CCN(C)C)C(=O)C2OC(C)=O)cc1 (stereo not drawn),4
2,Nc1nc(N)c2c(N3CCOCC3)cccc2n1,1.11
3,CN(C)CCC(c1ccccc1)c1ccccc1,4.31
4,NCCCOC1Cc2c(O)cc(O)cc2OC1c1ccc(O)c(O)c1 (stereo not drawn),0.52
5,Clc1cccc(N2CCN(CCn3nnc4ccccc43)CC2)c1,3.45
6,O=c1cc(-c2ccccc2Cl)oc2ccccc12,3.61
7,Cc1ccc(CO)c(C=NNC(=O)c2cccs2)c1O,3.03
8,O=C(NCCCCCOCCCN1CCOCC1)NC12CC3CC(CC(C3)C1)C2,2.7
9,CCOP(=O)(OCC)C(C)(C)[N+]([O-])=Cc1ccncc1,0.32
10,O=C(NO)NN=Cc1cccc(C(F)(F)F)c1,1.64
11,NC1=NCC(CN2CCN(c3ccc([N+](=O)[O-])cc3)CC2)O1 (stereo not drawn),1.23
12,Cc1c(O)c(=O)ccn1CCCOC(=O)c1ccccc1O,1.4
13,CC(C)NCC(O)CN1C(=O)COc2ccccc21 (stereo not drawn),1.45
14,CCCCCC(O)C=CC1C(O)CC(O)C1CC=CCCCC(=O)OC (stereo not drawn),3.07
15,Cc1ccccc1-n1nnnc1N,0.93
16,OC(CNC1CCCCC1)CON=C(C1CC1)C1CC1 (stereo not drawn),2.64
17,CON(C)C(=O)Nc1ccc(OC(C)CC2CCCCC2)cc1 (stereo not drawn),4.51
18,COC(=O)C(C)NP(=O)(OCC1C=CC(n2cc(C)c(=O)[nH]c2=O)O1)Oc1ccc(OC)cc1 (stereo not drawn),1.09
19,NC1=NCC(CN2CCC(C(=O)c3ccccc3)CC2)O1 (stereo not drawn),1.05
20,CCOC(=O)C(Cc1ccccc1)(Cc1ccccc1)S(=O)(=O)c1ccc([N+](=O)[O-])cc1,3.4
21,CC(c1ccccc1)N1CC(N2CCOCC2)=NC1=O (stereo not drawn),0.8
